Source: PubChem BioAssay AID602427 (Sanford-Burnham Center for Chemical Genomics, 2012)
Calls of active or inactive are those of the source.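 The calls were made as follows: active = EC50 at or below 20 micromolar; inactive = the rest.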

Biological target: Neurotensin receptor type 1 (Homo sapiens) (UniProt P30989)
Assay: NTR1 agonists, beta-arrestin recruitment, SAR follow-up, orthogonal assay for NTR1 agonist project, cell-based, luminescence, CHO-K1 NTSR1 PathHunter (AID 602427);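 also: agonist potency for NTR1 activation where higher luminescence means more arrestin recruitment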

Neurotensin receptor type 1 (Homo sapiens), sequence (P30989 whole entry, looked up): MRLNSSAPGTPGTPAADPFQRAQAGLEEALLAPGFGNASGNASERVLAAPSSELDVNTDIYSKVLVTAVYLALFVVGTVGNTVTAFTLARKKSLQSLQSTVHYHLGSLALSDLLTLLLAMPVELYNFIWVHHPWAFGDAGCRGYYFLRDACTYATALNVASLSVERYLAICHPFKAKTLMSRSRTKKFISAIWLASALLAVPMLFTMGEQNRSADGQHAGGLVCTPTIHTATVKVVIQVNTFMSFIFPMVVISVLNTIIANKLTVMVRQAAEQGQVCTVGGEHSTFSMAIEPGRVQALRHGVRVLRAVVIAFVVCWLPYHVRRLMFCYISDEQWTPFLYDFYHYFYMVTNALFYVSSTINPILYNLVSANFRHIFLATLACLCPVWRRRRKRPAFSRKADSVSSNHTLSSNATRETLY

Compound | EC50
COc1cc2c3nnc(-c4ccc(Cl)cc4)c-3cn(Cc3ccc(F)cc3)c2cc1OC | > 33 µM (inactive)
COc1cccc(OC)c1-c1nc(C(=O)N[C@@H](CC(C)C)C(=O)O)cn1-c1ccncc1 | > 33 µM (inactive)
CC(C)C[C@H](NC(=O)c1cn(-c2ccnc3cc(Cl)ccc23)c(-c2ccccc2)n1)C(=O)O | > 33 µM (inactive)
COc1cc2nc(C3CCC3)nc(N3CCN(c4ccccc4C)CC3)c2cc1OC | > 33 µM (inactive)
COc1cccc(OC)c1-c1nc(C(=O)N[C@@H](CC(C)C)C(=O)O)cn1-c1cccc2ccccc12 | 6.08 µM
COc1cc2c3nnc(-c4ccccc4)c-3cn(Cc3ccc(C)cc3)c2cc1OC | > 33 µM (inactive)
COc1cc2c3nnc(-c4ccc(F)cc4)c-3cn(Cc3cccc(N(C)C)c3)c2cc1OC | > 33 µM (inactive)
Cc1ccc(-n2ncc3c(N4CCN(c5ccc(Cl)c(Cl)c5)CC4)ncnc32)c(C)c1 | > 33 µM (inactive)
COc1ccccc1-c1cc(C(=O)N[C@@H](CC(C)C)C(=O)O)nn1-c1ccnc2cc(Cl)ccc12 | 0.546 µM
COc1cccc(OC)c1-c1nc(C(=O)O)cn1-c1ccncc1 | > 33 µM (inactive)
CCOC(=O)c1cc(-c2c(OC)cccc2OC)n(-c2ccnc3cc(Cl)ccc23)n1 | > 33 µM (inactive)
COc1ccccc1N1CCN(c2nc(C3CCC3)nc3cc4c(cc23)OCO4)CC1 | > 33 µM (inactive)
COc1ccc(N2CCN(c3ncnc4c3cnn4-c3ccc(C)cc3C)CC2)cc1 | > 33 µM (inactive)
CN(C)S(=O)(=O)c1ccc(-c2csc(N/N=C/c3ccccc3)n2)cc1 | > 33 µM (inactive)
COc1ccc(Cn2c(SCc3cc(C)ccc3C)nc3cc(OC)c(OC)cc3c2=N)cc1Cl | > 33 µM (inactive)
CCOc1ccc(-c2nnc3c4cc(OC)c(OC)cc4n(Cc4ccc(F)cc4)cc2-3)cc1 | inactive
COc1ccc(C(=O)c2cn(Cc3ccncc3)c3ccccc3c2=O)cc1 | > 33 µM (inactive)
CN(C)S(=O)(=O)c1ccc(-c2csc(N/N=C/c3ccc(C(C)(C)C)cc3)n2)cc1 | > 33 µM (inactive)
Cc1ccc(Cn2cc3c(-c4ccc(F)cc4)nnc-3c3cc4c(cc32)OCO4)cc1 | > 33 µM (inactive)
COc1cc2c3nnc(-c4ccc(C)cc4)c-3cn(Cc3ccc(C)cc3)c2cc1OC | > 33 µM (inactive)
COc1ccc(-c2nnc3c4ccccc4n(Cc4ccccc4)cc2-3)cc1 | > 33 µM (inactive)
N=c1c2ccccc2nc(SCc2ccc(Cl)cc2)n1Cc1ccccc1 | > 33 µM (inactive)

Compound | EC50
CCn1cc2c(-c3ccc(F)cc3)nnc-2c2cc(OC)c(OC)cc21 | > 33 µM (inactive)
COc1ccc(-c2nnc3c4ccccc4n(CC4CC4)cc2-3)cc1 | > 33 µM (inactive)
CC(C)C[C@H](NC(=O)c1cn(-c2ccncc2)c(-c2ccccc2)n1)C(=O)O | > 33 µM (inactive)
Cc1ccc(Cn2cc3c(-c4ccc(F)cc4)nnc-3c3ccccc32)cc1 | > 33 µM (inactive)
CCOc1cc2c(N3CCN(c4ccccc4OC)CC3)nc(-c3ccc(OC)c(OC)c3)nc2cc1OC | > 33 µM (inactive)
COc1cc2nc(-c3ccccc3)nc(N3CCN(c4ccccc4OC)CC3)c2cc1OC | > 33 µM (inactive)
Cc1ccc(-n2ncc3c(N4CCN(c5ccc(F)cc5)CC4)ncnc32)c(C)c1 | > 33 µM (inactive)
CC(C)C[C@H](NC(=O)c1nc(-c2ccncc2)c(-c2ccccc2)s1)C(=O)O | > 33 µM (inactive)
Cc1ccc(-n2ncc3c(N4CCN(c5ccccc5F)CC4)ncnc32)c(C)c1 | > 33 µM (inactive)
Clc1ccc(-c2nnc3c4cc5c(cc4n(Cc4ccccc4)cc2-3)OCO5)cc1 | > 33 µM (inactive)
Cc1ccc(-c2nnc3c4cc5c(cc4n(Cc4ccccc4)cc2-3)OCO5)cc1C | > 33 µM (inactive)
COc1ccc(C(=O)c2cn(CCc3ccccc3)c3ccccc3c2=O)cc1 | > 33 µM (inactive)
CN(C)S(=O)(=O)c1ccc(-c2csc(N/N=C/c3cccc(Cl)c3)n2)cc1 | > 33 µM (inactive)
CCCSc1nc2cc(OC)c(OC)cc2c(=N)n1Cc1ccccc1Cl | > 33 µM (inactive)
COc1cc2c3nnc(-c4ccc(C)c(C)c4)c-3cn(Cc3ccc(C)cc3)c2cc1OC | inactive
CC(C)C[C@H](NC(=O)c1cn(-c2ccnc3cc(Cl)ccc23)c(-c2c(Cl)cccc2Cl)n1)C(=O)O | > 33 µM (inactive)
COc1ccc(-c2nnc3c4ccccc4n(Cc4ccc(Cl)cc4)cc2-3)cc1 | > 33 µM (inactive)
COc1cc2c3nnc(-c4ccc(F)cc4)c-3cn(Cc3ccccc3)c2cc1OC | inactive
COc1ccc(C(=O)c2cn(Cc3ccc(F)cc3)c3ccccc3c2=O)cc1 | > 33 µM (inactive)
COc1ccc(-n2ncc3c(N4CCN(c5ccccc5)CC4)ncnc32)cc1 | > 33 µM (inactive)
COc1ccc(C(=O)c2cn(CC3CC3)c3ccccc3c2=O)cc1 | > 33 µM (inactive)
COc1ccc2c(c1)c(=O)c(C(=O)c1ccc(F)cc1)cn2Cc1ccc(F)cc1 | > 33 µM (inactive)
